Test results: patent US8697692B2, “Pyrrolo [3,2-c] pyridine-4-one 2-indolinone protein kinase inhibitors” (Shanghai Hengrui Pharmaceutical Co., Ltd., priority 2006, dated 2014)
pIC50: −log10 of the molar value. Where two headings read alike, the source gives them in different places.

What was measured:
A431 cell = assay: Cell Proliferation Inhibition EGFR Assay (SRB method); type: cell-based, homo sapient; settings: Homo sapiens, read-out: IC50 (A431)
Summary of the method: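 A431 cells grown to ~85% confluence, then exposed 72 hours at 37° C to 6 to 7 serial concentrations of compound in DMEM/F12 + 10% FBS, final DMSO ≤0.5%. Growth measured by TCA fixation and sulforhodamine B staining; IC50 calculated from inhibition rates.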

EGFR kinase = molecular target: T1, EGFR kinase (Homo sapiens, UniProt P00533); assay: EGFR Kinase Assay; type: biochemical; settings: 20 μM ATP, 25° C. 45 minutes
T1 construct: purchased Cell signaling technology #7908
T1 sequence (P00533 25-1210): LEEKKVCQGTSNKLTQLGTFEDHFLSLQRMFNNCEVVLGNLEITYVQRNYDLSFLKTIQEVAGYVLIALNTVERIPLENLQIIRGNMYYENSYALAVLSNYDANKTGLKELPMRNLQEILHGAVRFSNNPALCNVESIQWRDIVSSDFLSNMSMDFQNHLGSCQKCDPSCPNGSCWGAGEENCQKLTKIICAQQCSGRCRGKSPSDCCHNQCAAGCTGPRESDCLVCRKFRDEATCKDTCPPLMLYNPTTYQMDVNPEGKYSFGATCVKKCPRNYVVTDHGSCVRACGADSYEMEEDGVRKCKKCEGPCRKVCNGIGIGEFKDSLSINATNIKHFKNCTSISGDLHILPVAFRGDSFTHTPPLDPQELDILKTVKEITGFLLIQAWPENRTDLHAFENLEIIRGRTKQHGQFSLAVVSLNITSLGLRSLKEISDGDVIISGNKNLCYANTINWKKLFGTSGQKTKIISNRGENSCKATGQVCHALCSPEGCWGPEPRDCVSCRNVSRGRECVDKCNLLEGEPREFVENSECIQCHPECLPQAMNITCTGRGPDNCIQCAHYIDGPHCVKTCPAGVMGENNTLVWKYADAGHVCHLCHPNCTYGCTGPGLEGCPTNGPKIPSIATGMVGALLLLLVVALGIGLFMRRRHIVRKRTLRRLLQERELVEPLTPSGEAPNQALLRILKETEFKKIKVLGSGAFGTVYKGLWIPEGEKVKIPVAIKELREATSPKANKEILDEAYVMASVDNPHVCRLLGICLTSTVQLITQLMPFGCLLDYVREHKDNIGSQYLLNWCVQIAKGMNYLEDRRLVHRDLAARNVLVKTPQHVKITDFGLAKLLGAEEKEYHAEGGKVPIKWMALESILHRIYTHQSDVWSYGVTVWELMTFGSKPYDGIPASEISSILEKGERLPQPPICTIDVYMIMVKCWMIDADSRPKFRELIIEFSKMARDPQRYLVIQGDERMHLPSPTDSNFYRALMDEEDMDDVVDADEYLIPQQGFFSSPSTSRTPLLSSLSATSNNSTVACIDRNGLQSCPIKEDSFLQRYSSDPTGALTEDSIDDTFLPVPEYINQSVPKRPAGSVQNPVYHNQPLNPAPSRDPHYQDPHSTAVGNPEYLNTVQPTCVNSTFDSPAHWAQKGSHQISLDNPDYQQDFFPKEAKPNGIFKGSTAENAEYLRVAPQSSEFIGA
Protocol: EGFR kinase activity in vitro was measured as described below:
a. Wash Buffer (PBS-T Buffer): 1×PBS (137 mM NaCl, 2.7 mM KCl, 4.3 mM Na2HPO4, 1.4 mM KH2PO4, adjust the pH to 7.2) and 0.05% Tween-20.
(§1) b. 1% Bovine Serum Albumin (BSA, Calbiochem #136593) in PBS-T.
c. Stop Buffer: 50 mM EDTA, pH 8.0
d. DELFIA® Europium-labeled Anti-mouse IgG (PerkinElmer Life Sciences #AD0124)
e. DELFIA® Enhancement Solution (PerkinElmer Life Sciences #1244-105)
f. DELFIA® Streptavidin coated, 96-well, yellow plate (PerkinElmer Life Sciences #AAAND-0005)
g. EGFR kinase (supplied in 50 mM Tris-HCl (pH 8.0), 100 mM NaCl, 5 mM DTT, 15 mM reduced glutathione and 20% glycerol. Cell signaling technology #7908).
(§2) h. 10 mM ATP solution (Cell signaling technology #9804).
i. PTP1B (Tyr66) Biotinylated Peptide (Cell signaling technology #1325).
(§3) j. Phospho-Tyrosine Mouse mAb (P-Tyr-100) (Cell signaling technology #9411).
(§4) k. HTScan™ Tyrosine Kinase Buffer (4×)
(§5) (Cell signaling technology #9805).
(§6) l. 1.25 M DTT (1000×) (Cell signaling technology).
(§7) The following protocol was used:
1. Dilute test compound with DMSO to the desired final assay concentration.
2. Dilute 6 μM substrate peptide (Tyr66) 1:1 with dH2O, add 15 μl to every assay.
3. Immediately transfer EGFR enzyme from −80° C. to ice. Allow enzyme to thaw on ice.
4. Take 3 μg EGFR enzyme to the enzyme tube.
(§8) 5. Add 10 μl of DTT (1.25 M) to 2.5 ml of 4×HTScan™ Tyrosine Kinase Buffer (240 mM HEPES pH 7.5, 20 mM MgCl2, 20 mM MnCl2, 12 μM Na3VO4) to make DTT/Kinase buffer.
(§9) 6. Transfer 0.75 ml of DTT/Kinase buffer to each enzyme tube to make 4× reaction cocktail. Add 7.5 μl 4× reaction cocktail to every assay.
7. Add 4 μl ATP (10 mM) to 496 μl dH2O, take 7.5 μl for every assay.
Final Assay Conditions for a 30 μl Reaction
(§10) Incubate reaction tube at 25° C. for 45 minutes. 9. Add 30 μl/assay stop buffer (50 mM EDTA, pH 8.0) to stop the reaction. 10. Transfer 25 μl of each reaction and 75 μl dH2O/well to a 96-well streptavidin coated plate and incubate, with shaking at room temperature for 60 minutes. 11. Wash three times with 200 μl/well PBS-T buffer. Pat plate on paper towel to remove excess liquid. 12. Dilute primary antibody, Phospho-Tyrosine mAb (P-Tyr-100), 1:1000 in PBS-T buffer with 1% BSA. Add 100 μl diluted primary antibody to each well. 13. Incubate, with shaking at room temperature for 60 minutes. 14. Wash as described above in step 11. 15. Dilute Europium labeled anti-mouse IgG 1:500 in PBS-T buffer with 1% BSA. Add 100 μl diluted antibody to each well. 16. Incubate, with shaking at room temperature for 30 minutes. 17. Wash five times with 200 μl/well PBS-T buffer. Pat plate on paper towel to remove excess liquid. 18. Add 100 μl/well DELFIA® Enhancement Solution. 19. Incubate, with shaking at room temperature for 5 minutes. 20. Detect 615 nm fluorescence emission with appropriate Time-Resolved Plate Reader.
(§11) Calculate the inhibition rate: IR (%)=100−100*(X−B)/(N−B)
(§12) X=the fluorescence value of the well contained test compound
(§13) The IC50 value can be derived from the IRs of compounds at different concentration gradients.

HUVEC cell = assay: Cell Proliferation Inhibition VEGF-R2 Assay (SRB method); type: cell-based, homo sapient; settings: Homo sapiens; HUVEC cells, 72 hours exposure, Sulforhodamine B; read-out: IC50 (VEGFR/HUVEC)
Description: The following in vitro assay may be used to determine the level of activity and effect of different compounds of the present invention on the proliferation inhibition (cell toxic) of endothelium growth factor receptor (VEGFR) high expressing homo […] cancer cell-HUVEC cell. The cellular assay described here measure the compounds of their anti-angiogenesis and proliferation inhibition activity and effect through […] on the cancer cells in vitro. The effect and activity is represented by the IC50 value that kills the cancer cell. […] The homo […] highly express […] are chosen and seeded to 96-well cell culture plate at a suitable concentration (exp 5000 cells/ml medium). The cells then are cultured in carbon dioxide (CO2) incubator till when they confluence to about 85%. Then, the cell culture medium is replaced by fresh one with tested compounds added in it at serial concentrations (general 6 to 7 concentrations). Then the cells are put back to the culture and cultured for continuous 72 hours. 72 hours later, the cell exposed to compounds and control cell are assayed for their proliferation using Sulforhodamine B (SRB) method. […] Dimethyl sulfoxide (Sinophma chemical reagent company, catalog No. T20050806) • b. HUVEC cells (Purchased from Institute of biochemistry and cell biology) • c. […] Acetic Acid (Sinophma chemical reagent company, Catalog No. T20060508) • l. Trichloroacetic Acid (Sinophma chemical reagent company, Catalog No. T20060305) • m. […] Class II A/B3 Biological safety cabinet (ThermoForma Catalog No. HB0053-03) • o. […] Centrifuge (Fisher Scientific Marathon 8 k, Catalog No. 0027-02) • q. Novastar Plate reader (BMG Labtech, Catalog No. 700-0081) • r. […] Growing seeded 96-well plates at 37° C., 5% CO2, till 85% confluence. • 4. Prepare compounds stock solution, using DMSO solve candidate compounds to a concentration of 20 mM. […] Use cell culture medium (in this case, DMEM/F12+10% FBS) to dilute the compounds solution prepared above. Each DMSO serial concentration compound solution is diluted by 20 times with culture medium by adding 5 μl DMSO compound solution to 95 μl culture medium, then mix well by vortex. […] After HUVEC cell has attached to the dish bottom and confluence about 85%, change the culture medium with fresh DMEM/F12 plus 10% FBS. Each well added 180 μl medium, then add 20 μl medium solution of tested compounds prepared at step 5 to each well. For control group cell, add 20 μl culture medium containing 0.5% pure DMSO. […] Each 96-well plate, we can test 3 compounds with a control cell group. • 7. Put the culture plates back to incubator, culture for 72 hours at 37° C., 5% CO2. • 8. 72 hours later, remove cultures from incubator into sterile work area. • 9. Prepare fixative (50% Trichloroacetic Acid-TCA) by adding reagent grade water to the TCA, fix the cells by gently layering 50 μl of cold TCA solution on top of the growth medium. • 10. Incubate plates for 1 hour at 4° C. and then rinse with water several times to remove TCA, serum proteins, etc. Plates are air dried and stored until use. Bland background optical density is measured in wells incubated with growth medium without cells. • 11. Use 10% acetic acid solution to prepare 0.4% Sulforhodamine B solution. Add 50 μl sulforhodamine B solution to each well of 96-well plates. • 12. Allow cells to stain for 30 minutes. • 13. Prepared the wash solution of […] acetic acid. At the end of the staining period, the stain is removed and the cells rinsed quickly with 1% acetic acid. Repeat until unincorporated dye is removed. Keep wash times to a minimum to reduce desorption of protein-bound dye. After being rinsed, the cultures are air dried until no moisture is visible. • 14. The incorporated dye is then solubilized in a volume of Sulforhodamine B assay Solubilization solution (10 mM Tris) equal to the original volume of culture medium. Allow cultures to stand for 5 minutes at room temperature.

HER-2/ErbB2 kinase = molecular target: T2, HER-2/ErbB2 kinase (Homo sapiens, UniProt P04626); assay: HER-2 Kinase Assay (ELISA); type: biochemical; settings: 20 μM ATP, 25° C. 60 minutes
T2 construct: purchased Invitrogen corporation #PV3366
T2 sequence (P04626 23-1255): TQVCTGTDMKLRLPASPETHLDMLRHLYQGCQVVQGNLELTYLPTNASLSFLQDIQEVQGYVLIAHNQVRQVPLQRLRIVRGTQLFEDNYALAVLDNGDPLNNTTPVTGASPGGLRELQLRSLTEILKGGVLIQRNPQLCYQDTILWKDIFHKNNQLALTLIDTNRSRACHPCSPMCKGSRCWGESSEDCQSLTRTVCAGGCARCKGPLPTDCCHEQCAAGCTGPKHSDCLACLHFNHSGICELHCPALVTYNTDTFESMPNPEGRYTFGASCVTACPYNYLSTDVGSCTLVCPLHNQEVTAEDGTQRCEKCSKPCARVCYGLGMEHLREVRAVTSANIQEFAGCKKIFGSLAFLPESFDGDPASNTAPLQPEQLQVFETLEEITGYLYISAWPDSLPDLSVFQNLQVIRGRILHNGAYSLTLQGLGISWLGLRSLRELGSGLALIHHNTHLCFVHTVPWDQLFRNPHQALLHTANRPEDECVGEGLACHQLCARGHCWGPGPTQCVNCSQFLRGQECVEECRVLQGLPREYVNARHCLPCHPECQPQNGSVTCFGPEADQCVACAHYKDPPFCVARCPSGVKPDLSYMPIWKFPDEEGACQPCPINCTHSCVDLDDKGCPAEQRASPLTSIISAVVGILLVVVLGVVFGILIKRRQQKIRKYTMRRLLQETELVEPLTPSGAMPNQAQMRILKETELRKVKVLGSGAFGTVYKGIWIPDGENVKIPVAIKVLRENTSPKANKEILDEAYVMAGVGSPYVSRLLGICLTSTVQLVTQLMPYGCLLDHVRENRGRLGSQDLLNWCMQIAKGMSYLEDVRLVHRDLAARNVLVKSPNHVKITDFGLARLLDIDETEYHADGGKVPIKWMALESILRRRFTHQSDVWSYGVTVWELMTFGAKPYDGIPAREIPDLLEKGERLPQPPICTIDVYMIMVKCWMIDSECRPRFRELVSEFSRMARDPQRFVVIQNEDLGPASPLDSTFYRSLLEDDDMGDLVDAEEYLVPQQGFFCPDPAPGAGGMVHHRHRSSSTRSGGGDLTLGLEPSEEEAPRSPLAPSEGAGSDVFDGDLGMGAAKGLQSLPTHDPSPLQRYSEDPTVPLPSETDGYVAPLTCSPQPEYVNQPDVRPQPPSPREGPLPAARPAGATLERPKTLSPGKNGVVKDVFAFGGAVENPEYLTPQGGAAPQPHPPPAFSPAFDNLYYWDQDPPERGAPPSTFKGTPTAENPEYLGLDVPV
Protocol: An enzyme linked immunosorbent assays (ELISA) was conducted to measure the kinase activity of HER-2 in vitro.
a. Wash Buffer (PBS-T Buffer): 1×PBS (137 mM NaCl; 2.7 mM KCl, 4.3 mM Na2HPO4, 1.4 mM KH2PO4, adjust the pH to 7.2) and 0.05% Tween-20.
as §1
c. Stop Buffer: 50 mM EDTA, pH 8.0.
d. DELFIA® Europium-labeled Anti-mouse IgG (PerkinElmer Life Sciences #AD0124).
e. DELFIA® Enhancement Solution (PerkinElmer Life Sciences #1244-105).
f. DELFIA® Streptavidin coated, 96-well, yellow plate (PerkinElmer Life Sciences #AAAND-0005).
g. HER-2/ErbB2 kinase (Invitrogen corporation #PV3366).
as §2
i. FLT3 (Tyr589) Biotinylated Peptide (Cell signaling technology #1305).
as §3, §4, §5, §6, §7
1. Dilute test compound with DMSO to the desired final assay concentration. Add 1 μl test compound for every assay, to the negative control.
2. Dilute 6 μM substrate peptide (Tyr589) 1:1 with dH2O, add 15 μl to every assay.
3. Immediately transfer HER-2 enzyme from −80° C. to ice. Allow enzyme to thaw on ice.
4. Take 4.5 μg HER-2 enzyme to the enzyme tube.
as §8, §9
7. Add 4 μl ATP (10 mM) to 496 μl dH2O, take 7.5 μl for every assay. Final Assay Conditions for a 30 μl Reaction
as §10, with “60” for “45”
as §11, §12, §13

[1] = A-431, A431 cells, 72 hours exposure, Sulforhodamine B

SMILES | pIC50 (A431 cell; A-431, 72 h) | pIC50 (EGFR kinase) | pIC50 (A431 cell; [1]) | pIC50 (HUVEC cell) | pIC50 (HER-2/ErbB2 kinase)
CCN(CC)CCN1CCc2[nH]c(/C=C3\C(=O)Nc4ccc(F)cc43)c(C)c2C1=O [Example 1, 5-(2-Diethylamino-ethyl)-2-(5-fluoro-2-oxo-1,2-dihydro-indol-3-ylidenemethyl)-3-methyl-1,5,6,7-tetrahydro-pyrrolo[3,2-c]pyridin-4-one] | 5.96 | 6.55 | – | – | –
CCN(CC)CCN1CCc2[nH]c(/C=C3\C(=O)Nc4ccc(Cl)cc43)c(C)c2C1=O [Example 2, 2-(5-Chloro-2-oxo-1,2-dihydro-indol-3-ylidenemethyl)-5-(2-diethylamino-ethyl)-3-methyl-1,5,6,7-tetrahydro-pyrrolo[3,2-c]pyridin-4-one] | 5.98 | 6.54 | – | – | –
CCN(CC)CCN1CCc2[nH]c(/C=C3\C(=O)Nc4ccc(Br)cc43)c(C)c2C1=O [Example 3, 2-(5-Bromo-2-oxo-1,2-dihydro-indol-3-ylidenemethyl)-5-(2-diethylamino-ethyl)-3-methyl-1,5,6,7-tetrahydro-pyrrolo[3,2-c]pyridin-4-one] | 5.90 | 6.31 | – | – | –
Cc1c(/C=C2\C(=O)Nc3ccc(F)cc32)[nH]c2c1C(=O)N(CCN1CCCC1)CC2 [Example 13, 2-(5-Fluoro-2-oxo-1,2-dihydro-indol-3-ylidenemethyl)-3-methyl-5-(2-pyrrolidin-1-yl-ethyl)-1,5,6,7-tetrahydro-pyrrolo[3,2-c]pyridin-4-one] | – | 6.72 | 5.88 | – | –
O=C1Nc2ccc(Br)cc2/C1=C/c1[nH]c2c(c1-c1ccccc1)C(=O)NCC2 [Example 41, 2-(5-Bromo-2-oxo-1,2-dihydro-indol-3-ylidenemethyl)-3-phenyl-1,5,6,7-tetrahydro-pyrrolo[3,2-c]pyridin-4-one] | – | 5.22 | – | 6.66 | –
Cc1c(/C=C2\C(=O)Nc3cccc(Br)c32)[nH]c2c1C(=O)N(CCN1CCOCC1)CC2 [Example 49, 2-(4-Bromo-2-oxo-1,2-dihydro-indol-3-ylidenemethyl)-3-methyl-5-(2-morpholin-4-yl-ethyl)-1,5,6,7-tetrahydro-pyrrolo[3,2-c]pyridin-4-one] | – | – | – | – | 4.44
Cc1c(/C=C2\C(=O)Nc3cccc(-c4cccc(F)c4)c32)[nH]c2c1C(=O)N(CCN1CCCCC1)CC2 [Example 64, 2-[4-(3-Fluoro-phenyl)-2-oxo-1,2-dihydro-indol-3-ylidenemethyl]-3-methyl-5-(2-piperidin-1-yl-ethyl)-1,5,6,7-tetrahydro-pyrrolo[3,2-c]pyridin-4-one] | – | – | 6.74 | – | 6.17
